According to the NIST ThermoML archive (doi:10.1016/j.jct.2008.04.004):
± gives the expanded uncertainty stated by the source.

How the values were obtained:
[1] = Crystal
[2] = molar enthalpy of vaporization or sublimation; details: 298.15 K, Crystal
[3] = stuart scientific smp2 calibrated apparatus

molar enthalpy ([2]; Unpublished results by the authors) [kJ/mol]	SMILES	Normal melting temperature ([1]; DTA) [°C]	molar enthalpy ([2]; Vacuum drop calorimetry) [kJ/mol]	Normal melting temperature [1, 3] [°C]
–	N#Cc1ccccc1C(=O)O [2-cyanobenzoic acid]	232.6 ± 0.5	115 ± 3	–
–	N#Cc1cccc(C(=O)O)c1 [3-cyanobenzoic acid]	–	117 ± 3	223 ± 1
113 ± 2	N#Cc1ccc(C(=O)O)cc1 [4-cyanobenzoic acid]	–	–	220 ± 1
